Data taken from patent US8394775B2 (Amorepacific Corporation, priority 2005, dated 2013).

Legend:
human skin = assay: Whitening effect on human skin after UV-induced darkening; format: in vivo; conditions: 1% applied on UV-darkened upper arm skin, 10 weeks, colorimeter
Experimental: Firstly, 12 healthy males were enlisted for the test. They had opaque tape with a 1.5 cm hole attached on the upper arm. UV rays 1.5 to 2 times greater than the minimal erythema dose were irradiated to induce darkening of the skin.
For 10 weeks, the change was observed. Every 1 week, the color of the skin was measured by colorimeter CR2002 (Japan, Minolta)
Then, the difference of skin color (ΔL*) between the point when the application of the test material was initiated and the point when the application of the test material was completed was calculated according to the following equation and the result is shown in Table 7. Meanwhile, the whitening effect was determined by comparison of ΔL* between the sample applied part and the control. When ΔL* value is about 2, the whitening of the pigmentation was significant. When ΔL* is over 1.5, it was considered that the sample had whitening effect. ΔL*=(L*at the point when the application is completed)−(L*at the point when the application is initiated) [Equation 4]

[1] = system: pigment cells (Mel-Ab cell); assay: Inhibition of melanin synthesis using pigment cell of mouse; format: cell-based; conditions: 10 ppm for continuous 3 days, non-treatment group given as 100.0
From the text: Here, hydroquinone was a positive control.

elastase = assay: Inhibition of elastase expression in human fibroblasts; format: cell-based; conditions: molar concentration of 10^−4, 24 hours, compared to 100 of the non-treatment group
Experimental: (§1) Firstly, human fibroblasts were seeded in a 96-well microtiter plate containing DMEM supplemented with 2.5% fetal bovine serum at a level of 5000 cells per well and cultured until they grew up to 90%.
Then, the culture fluid was examined for formation of elastase using a commercially available elastase measuring kit (Amorsham pharmacia, USA).
(§2) Firstly, the taken cell culture fluid was added to the 96-well plate having the primary elastase antibody evenly applied and left for antigen-antibody reaction in a thermostat for 3 hours. After 3 hours, the secondary collagen antibody having a chromophore bonded thereto was added to the 96-well plate and left for reaction for 15 minutes. After 15 minutes, a color developing agent was added and left for 15 minutes. Then, 1M sulphuric acid was added to quit the reaction (color development), upon which the color of the reaction became yellow. The yellow level varied according to the progress of the reaction.
(§3) The absorption of the 96-well plate of the yellow color was measured at 405 nm using a spectrophotometer. The expression of elastase was calculated according to the following Equation II. Here, the absorption of the control was the absorption of the cell culture fluid taken from the group which had not been treated with the test materials. Expression of elastase (%)=(A/B)×100 [Equation II] • (A: absorption of cells treated with the test materials B: absorption of control)
Meanwhile, the result of measurement of inhibition effect of the test materials on elastase expression in human fibroblasts is shown in Table 5, in which the expression of elastase is compared to 100 of the non-treatment group.

[2] = system: Human keratinocytes HaCaT cell line; assay: Inhibition of reactive oxygen species (ROS) production using fluorescent material (DCFH-DA), UVB irradiation; format: cell-based; conditions: HaCaT cells, UVB 30 mJ/cm^2, DCF fluorescence
Experimental: The cell lines used in the test was Human keratinocytes HaCaT cell line. The cells were distributed to a 96 well black plate for fluorescence measurement at 2.0×10^4 per each well and cultured in DMEM (Dulbeccos Modification of Eagles Medium, FBS 10%) supplemented with penicillin/streptomycin at 37° C., 5% CO2 for 1 day, followed by treatment with test samples. Serum free DMEM (FBS free) supplemented with penicillin/streptomycin as shown in Table 2 was used for cultivation of the medium which had been treated with samples. The cultivation was performed at 37° C., 5% CO2 for 1 day.
After cultivation of 24 hours with test samples, the plate was washed with HCSS (HEPES-buffered control salt solution) to remove the medium and the HCSS was treated with 100 μl of 20 μM DCFH-DA (2′,7′-dichlorodihydro-fluorescein diacetate, Molecular Probes, Inc). Then, the plate was kept under conditions of 37° C., 5% CO2 for 20 minutes and washed with HCSS. Next, the plate was treated with 100 μl of HCSS comprising samples at different concentrations and the fluorescence intensity of DCF (dichlorofluorescein), which had been oxidized […] at the early stage, was measured using a fluorescent plate reader (Ex=485 nm, Em=530 nm). The fluorescence, right after the irradiation of UVB (30 mJ/cm^2) or 3 hours later of the irradiation, was measured using a fluorescent plate reader (Ex=485 nm, Em=530 nm).
As control, Trolox was used.

collagenase = assay: Inhibition of collagenase expression in human fibroblasts; format: cell-based; conditions: molar concentration of 10^−4, 24 hours, compared to 100 of the non-treatment group
Experimental: as §1
Then, the culture fluid was examined for formation of collagenase using a commercially available collagenase measuring kit (Amorsham pharmacia, USA).
as §2, with “collagenase” for “elastase”
as §3, with “collagenase” for “elastase”, “I.” for “II.”, “collagenase (%) (A/B)×100” for “elastase (%)=(A/B)×100”, “I]” for “II]”
Meanwhile, the result of measurement of inhibition effect of the test materials on collagenase expression in human fibroblasts is shown in Table 4, in which in which the expression of collagenase is compared to 100 of the non-treatment group.

procollagen type (I) = assay: Promotion of collagen biosynthesis in fibroblasts (procollagen type (I) ELISA); format: cell-based; conditions: 24 hours, compared to 100 of the non-treatment group
Experimental: Firstly, fibroblasts (PromoCell, Germany) were seeded in a 24 well plate at a level of 10^5 per well and cultured until they grew up to 90%. […] The supernatant was taken and examined for increase and decrease of procollagen using procollagen type (I) ELISA kit (proc/; ollagen type (I)). The result is shown in Table 3, in which the synthesis is compared to 100 of the non-treatment group.

[3] = DPPH test of anti-oxidant effect; format: biochemical; conditions: read-out: DPPH analysis IC50 (concentration, upon which the absorption is decreased to 50%); 100 μM DPPH in ethanol, 37° C., 30 minutes, absorption at 540 nm
Experimental: A method for evaluating anti-oxidant effect through change of absorption generated by reduction of the organic radical DPPH (1,1-diphenyl-2-picryl hydrazyl) (while anti-oxidant is oxidized) is used. The change of absorption, which was decreased when the oxidization of DPPH was inhibited, was measured, as compared to the control.
The absorption was measured at 540 nm. The control sample was synthesized anti-oxidant Trolox, commonly used.

Compound | Whitening effect (ΔL*) (human skin) | Melanin content (% of untreated control) [1] | Expression of elastase (%) (elastase) | Inhibition effect on ROS production (control %) ([2]; 6.25 uM) | Inhibition effect on ROS production (control %) ([2]; 12.5 uM) | Inhibition effect on ROS production (control %) ([2]; 25 uM) | Inhibition effect on ROS production (control %) ([2]; 50 uM) | Expression of collagenase (%) (collagenase) | Synthesis (%) of procollagen (procollagen type (I)) | IC50 [3] | activity at 6.25 µM ([2]; Homo sapiens, light or radiation study, 6.25 uM, read-out: Inhibition effect on ROS production (control %)) | activity at 12.5 µM ([2]; Homo sapiens, light or radiation study, 12.5 uM, read-out: Inhibition effect on ROS production (control %)) | activity at 25 µM ([2]; Homo sapiens, light or radiation study, 25 uM, read-out: Inhibition effect on ROS production (control %)) | activity at 50 µM ([2]; Homo sapiens, light or radiation study, 50 uM, read-out: Inhibition effect on ROS production (control %))
COc1ccc(-c2oc3c(CC=C(C)C)c(O)cc(O)c3c(=O)c2O)cc1 [Icaritin] | 1.89 ± 0.25 | 39.5% | 55% | 68.2% | 61.5% | 51.7% | 43.2% | 66% | 146% | 6.75 µM | – | – | – | –
COc1ccc(-c2oc3c(CC=C(C)C)c(O[C@@H]4O[C@H](CO)[C@@H](O)[C@H](O)[C@H]4O)cc(O)c3c(=O)c2O)cc1 [Icariside I] | 1.88 ± 0.17 | 38.6% | 56% | 65.6% | 61.4% | 54.8% | 43.8% | 64% | 145% | 7.78 µM | – | – | – | –
Cc1c(C)c2c(c(C)c1O)CCC(C)(C(=O)O)O2 (stereo not shown) [Trolox, reference compound] | – | – | – | – | – | – | – | – | – | 8.63 µM | 76.9% | 74.6% | 73.3% | 58.5%
Oc1ccc(O)cc1 [Hydroquinone, hydroquinone, reference compound] | 1.90 ± 0.11 | 41.1% | – | – | – | – | – | – | – | – | – | – | – | –
COc1ccc(-c2oc3c(CC=C(C)C)c(O)cc(O)c3c(=O)c2O[C@@H]2O[C@H](C)[C@@H](O)[C@H](O)[C@@H]2O)cc1 [Icariside II] | 1.83 ± 0.25 | 38.2% | 63% | 63.2% | 62.0% | 56.6% | 46.6% | 66% | 138% | 7.15 µM | – | – | – | –
O=C(O[C@@H]1Cc2c(O)cc(O)cc2O[C@@H]1c1cc(O)c(O)c(O)c1)c1cc(O)c(O)c(O)c1 [EGCG, reference compound] | – | – | 68% | – | – | – | – | 60% | 125% | – | – | – | – | –
tocopherol [reference compound] | – | – | 88% | – | – | – | – | 75% | 118% | – | – | – | – | –
COc1ccc(-c2oc3c(CC=C(C)C)c(O[C@@H]4O[C@H](CO)[C@@H](O)[C@H](O)[C@H]4O)cc(O)c3c(=O)c2O[C@@H]2O[C@@H](C)[C@H](O)[C@@H](O)[C@H]2O)cc1 [Icariin] | 1.10 ± 0.13 | 84.5% | 87% | 98.1% | 89.7% | 88.6% | 86.3% | 81% | 117% | – | – | – | – | –
